Columns and labels:
[1] = biological target: T1, A-Raf (Homo sapiens, UniProt P10398); assay: Raf kinase assay (Kinase HotSpot, Reaction Biology Corp.); assay type: biochemical
T1 sequence (P10398 1-606): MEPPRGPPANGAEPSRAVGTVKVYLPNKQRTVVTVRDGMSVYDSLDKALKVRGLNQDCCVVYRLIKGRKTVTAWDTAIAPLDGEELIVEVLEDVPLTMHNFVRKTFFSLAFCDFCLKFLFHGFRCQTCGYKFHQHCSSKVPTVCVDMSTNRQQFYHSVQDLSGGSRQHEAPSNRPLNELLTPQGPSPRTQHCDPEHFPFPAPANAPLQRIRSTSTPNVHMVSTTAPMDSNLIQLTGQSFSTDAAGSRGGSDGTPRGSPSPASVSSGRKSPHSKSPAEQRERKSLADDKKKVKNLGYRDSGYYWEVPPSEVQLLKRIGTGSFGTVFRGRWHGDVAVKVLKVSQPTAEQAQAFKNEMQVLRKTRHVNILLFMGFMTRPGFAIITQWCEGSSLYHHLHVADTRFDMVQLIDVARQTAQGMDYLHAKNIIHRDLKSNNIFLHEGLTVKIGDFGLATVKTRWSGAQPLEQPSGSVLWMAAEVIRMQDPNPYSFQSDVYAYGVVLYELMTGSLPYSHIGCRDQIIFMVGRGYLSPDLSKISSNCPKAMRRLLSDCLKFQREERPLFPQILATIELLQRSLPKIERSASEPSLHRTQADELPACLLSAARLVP
Method: Compounds were delivered into each Raf reaction, followed ∼20 min later by addition of a mixture of ATP and [γ-^33P-ATP] (specific activity approx. 500 cpm/pmol, concentration as required) to a final concentration of 10 µM. […] Then, the reaction was spotted onto a P30 filtermat, and unbound phosphate was removed by washing three times for 5 min in 75 mM phosphoric acid and once in methanol prior to drying and scintillation counting. […] IC50 values and curve fits were obtained using Prism (GraphPad Software, La Jolla, CA).

[2] = biological target: B-Raf (Homo sapiens, UniProt P15056); assay: as above; assay type: biochemical
Method: (§1) Compounds were delivered into each Raf reaction, followed ∼20 min later by addition of a mixture of ATP and [γ-^33P-ATP] (specific activity approx. 500 cpm/pmol, concentration as required) to a final concentration of 10 µM. After incubation for 40 min at 25 °C, the reaction was stopped by the addition of a 3% phosphoric acid solution. Then, the reaction was spotted onto a P30 filtermat, and unbound phosphate was removed by washing three times for 5 min in 75 mM phosphoric acid and once in methanol prior to drying and scintillation counting. […] IC50 values and curve fits were obtained using Prism (GraphPad Software, La Jolla, CA).

[3] = biological target: B-Raf (V600E) (Homo sapiens, UniProt P15056, V600E); assay: as above; assay type: biochemical
Method: as §1

[4] = biological target: C-Raf (Homo sapiens, UniProt P04049); assay: as above; assay type: biochemical
Method: as §1

[5] = biological target: T2, VEGFR-2 tyrosine kinase (Homo sapiens, UniProt P35968); assay: VEGFR-2 (KDR) kinase assay (ADP-glow); assay type: biochemical; settings: fixed concentration 1 µM; read-out: inhibitory activity against VEGFR-2 tyrosine kinase
T2 construct: purchased Promega

[6] = system: Hep3B; assay: Cell proliferation assay (MTT); assay type: cell-based; settings: Homo sapiens, 48 h, mean ± SEM of three independent experiments, read-out: Cancer cell proliferation IC50 Hep3B
Method: (§2) Hepatocellular carcinoma cell lines (HepG2, Huh7), human pancreatic ductal epithelial cell line (H6c7), and normal human colon cell line (CCD841) were obtained from the American Type Culture Collection (ATCC) (Manassas, VA, USA). Cells were cultured in DMEM/High Glucose media (Hep3B, Huh7, CCD841) or MEM/EBSS media (HepG2) containing 10% FBS, 100 IU/ml of penicillin and 100 µg/ml of streptomycin. H6c7 cells were cultured in keratinocyte serum free media supplemented with epidermal growth factor and bovine pituitary extract. Cells were maintained in 5% CO2 humidified atmosphere at 37 °C.
(§3) Cells were seeded in a 96-well plate and allowed to adhere for 24 h. The cells were serum starved in 1% serum containing medium for 12 h, and then treated with drugs in 10% serum-containing medium. After incubation for 48 h, cell proliferation was measured using MTT assay. Optical density was measured at 540 nm using a Spectrostar Nano microplate reader (BMG LABTECH GmbH, Ortenberg, Germany).

[7] = system: HepG2; assay: Cell proliferation assay (MTT); assay type: cell-based; settings: Homo sapiens, 48 h, mean ± SEM of three independent experiments, read-out: Cancer cell proliferation IC50 HepG2
Method: as §2, §3

[8] = system: Huh7; assay: Cell proliferation assay (MTT); assay type: cell-based; settings: Homo sapiens, Huh-7, 48 h, mean ± SEM of three independent experiments, read-out: Cancer cell proliferation IC50 Huh7
Method: as §2, §3

[9] = Cytotoxicity assay (MTT), normal cells; assay type: cell-based, human; settings: human, mean ± SEM
Method: as §2
Cells were seeded in a 96-well plate and allowed to adhere for 24 h. Cells in low serum (1%)-containing medium were treated with drugs for 48 h. In case of H6c7 cells, cells in keratinocyte serum free media were treated with drugs for 48 h. Then, cell viability was measured using MTT assay. Optical density was measured at 540 nm using a Spectrostar Nano microplate reader (BMG LABTECH).

[10] = system: Hep3B cells; assay: Sphere formation assay; assay type: cell-based; settings: Homo sapiens, 48 h drug treatment, 13 days culture, read-out: % Inhibition of sphere forming Hep3B
Method: (§4) Sphere forming ability of Hep3B and Huh7 cells were examined after incubation with drugs for 48 h. Briefly, 3 × 10^3 cells which were pre-treated with or without drugs in prEGM media (Lonza, Basel, Switzerland) were seeded on an ultra-low adhering 24 well plate (Corning Incorporated Costar, Corning, NY). Twice a week, 500 µL of used medium was replaced with fresh prEGM media. At 13 days after plating, images of spheres were captured using Celloger Mini (Curiosis Inc., Seoul, South Korea). The number of spheroids over 50 µm in diameter was counted by using Image J software (National Institute of Health, Bethesda, MD).

[11] = system: Huh7 cells; assay: Sphere formation assay; assay type: cell-based; settings: Homo sapiens, Huh-7, 48 h drug treatment, 13 days culture, read-out: % Inhibition of sphere forming Huh7
Method: as §4

[12] = fixed concentration 1 μM, mean of two independent experiments
[13] = fixed concentration 1 μM, mean of two independent experiments, 1 µM

C-Raf, sequence (P04049 whole entry): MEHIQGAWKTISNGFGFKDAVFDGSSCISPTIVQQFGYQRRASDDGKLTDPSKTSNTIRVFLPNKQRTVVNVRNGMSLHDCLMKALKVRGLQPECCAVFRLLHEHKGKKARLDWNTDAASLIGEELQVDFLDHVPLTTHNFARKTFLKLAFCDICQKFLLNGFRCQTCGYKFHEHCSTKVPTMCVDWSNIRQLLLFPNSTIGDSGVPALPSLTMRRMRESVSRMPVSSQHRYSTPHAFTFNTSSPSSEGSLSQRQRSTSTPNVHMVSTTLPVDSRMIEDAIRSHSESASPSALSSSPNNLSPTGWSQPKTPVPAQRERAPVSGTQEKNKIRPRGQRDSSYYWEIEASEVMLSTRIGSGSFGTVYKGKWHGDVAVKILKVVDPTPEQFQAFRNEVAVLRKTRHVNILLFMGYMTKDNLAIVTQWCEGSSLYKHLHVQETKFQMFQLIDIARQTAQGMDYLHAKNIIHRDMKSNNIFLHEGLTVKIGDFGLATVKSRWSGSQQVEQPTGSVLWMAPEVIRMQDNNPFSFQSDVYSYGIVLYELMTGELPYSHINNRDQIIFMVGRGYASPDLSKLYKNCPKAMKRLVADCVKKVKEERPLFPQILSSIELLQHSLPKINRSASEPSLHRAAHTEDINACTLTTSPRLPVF
B-Raf, sequence (P15056 whole entry): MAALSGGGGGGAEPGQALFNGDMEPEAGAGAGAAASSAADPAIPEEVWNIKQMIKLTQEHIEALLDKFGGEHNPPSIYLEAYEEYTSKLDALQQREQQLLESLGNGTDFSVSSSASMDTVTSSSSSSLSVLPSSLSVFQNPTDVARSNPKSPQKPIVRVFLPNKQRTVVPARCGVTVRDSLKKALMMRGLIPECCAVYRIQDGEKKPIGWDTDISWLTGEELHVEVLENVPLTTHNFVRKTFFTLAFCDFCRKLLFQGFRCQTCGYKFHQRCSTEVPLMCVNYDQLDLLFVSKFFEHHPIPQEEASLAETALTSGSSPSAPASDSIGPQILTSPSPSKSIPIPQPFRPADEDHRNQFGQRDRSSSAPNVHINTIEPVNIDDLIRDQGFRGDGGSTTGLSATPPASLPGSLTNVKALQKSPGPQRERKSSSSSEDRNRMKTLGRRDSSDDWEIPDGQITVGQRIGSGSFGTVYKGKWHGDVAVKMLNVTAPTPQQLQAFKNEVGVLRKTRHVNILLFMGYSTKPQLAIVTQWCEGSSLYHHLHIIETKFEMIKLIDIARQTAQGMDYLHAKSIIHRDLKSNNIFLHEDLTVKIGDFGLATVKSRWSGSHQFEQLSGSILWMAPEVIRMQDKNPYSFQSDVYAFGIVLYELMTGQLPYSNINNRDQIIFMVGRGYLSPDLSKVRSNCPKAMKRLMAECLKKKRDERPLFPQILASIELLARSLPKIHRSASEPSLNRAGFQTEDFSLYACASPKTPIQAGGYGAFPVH
B-Raf (V600E), sequence (P15056 whole entry V600E): as the sequence (P15056 whole entry) above, with V600E counted along it
T2 sequence (P35968 20-1356): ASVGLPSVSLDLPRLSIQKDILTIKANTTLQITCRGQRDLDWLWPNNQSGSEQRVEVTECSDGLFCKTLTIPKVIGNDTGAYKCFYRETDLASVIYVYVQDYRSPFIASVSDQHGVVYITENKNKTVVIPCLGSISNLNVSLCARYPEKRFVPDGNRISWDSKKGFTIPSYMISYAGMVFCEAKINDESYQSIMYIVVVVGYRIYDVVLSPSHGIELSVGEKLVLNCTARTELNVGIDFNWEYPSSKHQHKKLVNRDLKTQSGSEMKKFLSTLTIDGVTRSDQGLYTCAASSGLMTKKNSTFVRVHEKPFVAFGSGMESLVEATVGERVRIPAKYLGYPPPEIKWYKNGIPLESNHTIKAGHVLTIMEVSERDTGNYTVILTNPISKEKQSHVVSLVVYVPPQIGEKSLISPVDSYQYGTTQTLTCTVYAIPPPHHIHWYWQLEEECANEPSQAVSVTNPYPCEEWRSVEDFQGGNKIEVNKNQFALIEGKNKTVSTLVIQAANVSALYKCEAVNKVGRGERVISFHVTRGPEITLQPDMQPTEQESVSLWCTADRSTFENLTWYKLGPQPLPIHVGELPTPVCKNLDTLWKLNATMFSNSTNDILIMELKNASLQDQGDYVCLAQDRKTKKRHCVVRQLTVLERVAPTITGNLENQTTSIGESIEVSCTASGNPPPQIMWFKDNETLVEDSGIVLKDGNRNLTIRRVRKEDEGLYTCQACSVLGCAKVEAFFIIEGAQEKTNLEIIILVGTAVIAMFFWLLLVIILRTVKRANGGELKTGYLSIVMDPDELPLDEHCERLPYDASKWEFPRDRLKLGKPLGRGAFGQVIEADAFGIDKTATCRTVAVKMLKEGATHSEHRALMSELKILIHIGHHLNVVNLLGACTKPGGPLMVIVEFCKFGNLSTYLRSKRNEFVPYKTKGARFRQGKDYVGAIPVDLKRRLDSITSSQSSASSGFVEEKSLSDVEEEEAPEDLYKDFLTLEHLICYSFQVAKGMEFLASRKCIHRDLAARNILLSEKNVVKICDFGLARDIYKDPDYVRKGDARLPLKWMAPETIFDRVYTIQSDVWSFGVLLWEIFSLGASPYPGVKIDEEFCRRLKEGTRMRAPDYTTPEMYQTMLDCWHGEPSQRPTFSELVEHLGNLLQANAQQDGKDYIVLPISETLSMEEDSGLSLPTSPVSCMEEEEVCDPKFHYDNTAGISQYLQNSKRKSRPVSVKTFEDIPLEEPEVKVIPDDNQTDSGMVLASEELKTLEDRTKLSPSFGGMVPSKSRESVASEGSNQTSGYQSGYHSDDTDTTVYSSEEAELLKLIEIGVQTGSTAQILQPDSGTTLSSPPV

- inhibition at 1 µM [1, 12]: 56%
- IC50 ([1]; mean ± SD of two independent experiments, read-out: In vitro Raf kinase inhibition IC50 A-Raf): 312 ± 25.9 nM
- inhibition at 1 µM [2, 12]: 11.6%
- Inhibition (%) B-Raf [2, 13]: 12%
- IC50 ([2]; mean ± SD of two independent experiments, read-out: In vitro Raf kinase inhibition IC50 B-Raf): 5.86 µM
- inhibition at 1 µM ([3]; fixed concentration 1 μM, mean of two independent experiments, B-Raf (V599E)): 56.1%
- IC50 ([3]; mean ± SD of two independent experiments, read-out: In vitro Raf kinase inhibition IC50 B-Raf(V600E)): 650 ± 2.3 nM
- Inhibition (%) C-Raf [4, 13]: 84%
- inhibition at 1 µM ([4]; fixed concentration 1 μM, mean of two independent experiments, read-out: Inhibition (%) C-Raf): 84.3%
- IC50 ([4]; mean ± SD of two independent experiments, read-out: In vitro Raf kinase inhibition IC50 C-Raf): 80 ± 8.1 nM
- inhibition at 1 µM [5]: ~32%
- IC50 [6]: 6.23 ± 0.07 µM
- IC50 [7]: 6.98 ± 0.08 µM
- IC50 [8]: 5.29 ± 0.11 µM
Compound: CNC(=O)c1cc(Oc2c(C)nc(NC(=O)Nc3ccc(Cl)c(C(F)(F)F)c3)c(C)c2C)ccn1 [Compound 4, 4-((6–(3-(4-Chloro-3-(trifluoromethyl)phenyl)ureido)-2,4,5-trimethylpyridin-3-yl)oxy)-N-methylpicolinamide]
- CC50 at 48 h ([9]; CCD841 cells (normal colon epithelial cell line)): > 10 µM
- CC50 at 48 h ([9]; H6c7 cells (normal pancreatic ductal epithelial cell line)): > 10 µM
- inhibition at 1 µM ([10]; 1 μM): 30.8%
- inhibition at 10 µM ([10]; 10 μM): 50.6%
- inhibition at 1 µM ([11]; 1 μM): 31.6%
- inhibition at 10 µM ([11]; 10 μM): 50.5%
